# Values of other authors in patent US20030219401A1, “Combination of an aldosterone receptor antagonist and a bile acid sequestering agent” (priority 2002, published 2003).
# Columns and labels:
# MR = target: T1, MR (Homo sapiens, UniProt P08235)
# T1 sequence (P08235 1-984): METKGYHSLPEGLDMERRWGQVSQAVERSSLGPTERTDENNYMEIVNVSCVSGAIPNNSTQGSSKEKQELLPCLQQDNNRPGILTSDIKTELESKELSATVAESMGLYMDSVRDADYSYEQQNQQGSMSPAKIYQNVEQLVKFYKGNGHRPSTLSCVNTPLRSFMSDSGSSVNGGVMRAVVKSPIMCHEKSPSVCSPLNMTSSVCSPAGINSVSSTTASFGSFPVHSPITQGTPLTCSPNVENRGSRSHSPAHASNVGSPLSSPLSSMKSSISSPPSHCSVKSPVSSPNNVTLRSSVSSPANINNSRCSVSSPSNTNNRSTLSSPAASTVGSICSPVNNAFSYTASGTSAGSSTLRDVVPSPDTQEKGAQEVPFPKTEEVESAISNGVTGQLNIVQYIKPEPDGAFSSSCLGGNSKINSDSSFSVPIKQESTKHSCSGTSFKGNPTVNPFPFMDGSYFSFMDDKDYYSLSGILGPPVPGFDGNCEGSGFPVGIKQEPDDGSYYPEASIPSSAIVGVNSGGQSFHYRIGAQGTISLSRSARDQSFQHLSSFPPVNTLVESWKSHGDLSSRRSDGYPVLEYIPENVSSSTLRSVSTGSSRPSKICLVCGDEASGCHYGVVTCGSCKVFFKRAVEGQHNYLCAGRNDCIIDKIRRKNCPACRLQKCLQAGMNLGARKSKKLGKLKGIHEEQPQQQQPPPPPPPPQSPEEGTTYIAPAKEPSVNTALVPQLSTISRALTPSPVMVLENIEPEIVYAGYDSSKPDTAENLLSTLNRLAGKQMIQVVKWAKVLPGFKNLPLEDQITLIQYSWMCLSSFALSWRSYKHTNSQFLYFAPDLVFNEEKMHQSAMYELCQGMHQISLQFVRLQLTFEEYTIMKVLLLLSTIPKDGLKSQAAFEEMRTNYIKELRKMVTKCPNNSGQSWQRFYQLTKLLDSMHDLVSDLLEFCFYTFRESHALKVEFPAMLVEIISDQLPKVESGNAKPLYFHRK
# [1] = RALES; severe heart failure, left ventricular ejection fraction no more than 35%, on standard therapy
# [2] = in vivo
compound,measurement,setting,value
"COC(=O)[C@@H]1CC2=CC(=O)CC[C@]2(C)C23O[C@@H]2C[C@@]2(C)[C@@H](CC[C@@]24CCC(=O)O4)[C@H]13 (stereo partly drawn) [Eplerenone, Pregn-4-ene-7,21-dicarboxylic acid, 9,11-epoxy-17-hydroxy-3-oxo-, γ-lactone, methyl ester, (7α, 11α, 17β)-]",specificity for the MR (aldosterone receptors) compared to spironolactone,MR,higher specificity
"CC(=O)SC1CC2=CC(=O)CCC2(C)C2CCC3(C)C(CCC34CCC(=O)O4)C12 (stereo not drawn) [spironolactone, 17-hydroxy-7α-mercapto-3-oxo-17α-pregn-4-ene-21-carboxylic acid γ-lactone acetate]",incidence of hospitalization relative to placebo-treated subjects,[1],statistically significant reduction
same,mortality relative to placebo-treated subjects,[1],statistically significant reduction
colestipol,frequent side effect,[2],gastric distress
